Tests used:
aquatic organisms = settings: threshold for effluents, tenfold dilution assumed; ref Loos et al., 2018; cited from earlier work
[1] = biological target: T1, human estrogen receptor α (ERα) (Homo sapiens, UniProt P03372); assay: lyticase Yeast Estrogen Screen; assay type: cell-based; settings: L‐YES; based on PC10 values, 3 replicates, considering molecular weights
T1 sequence (P03372 1-595): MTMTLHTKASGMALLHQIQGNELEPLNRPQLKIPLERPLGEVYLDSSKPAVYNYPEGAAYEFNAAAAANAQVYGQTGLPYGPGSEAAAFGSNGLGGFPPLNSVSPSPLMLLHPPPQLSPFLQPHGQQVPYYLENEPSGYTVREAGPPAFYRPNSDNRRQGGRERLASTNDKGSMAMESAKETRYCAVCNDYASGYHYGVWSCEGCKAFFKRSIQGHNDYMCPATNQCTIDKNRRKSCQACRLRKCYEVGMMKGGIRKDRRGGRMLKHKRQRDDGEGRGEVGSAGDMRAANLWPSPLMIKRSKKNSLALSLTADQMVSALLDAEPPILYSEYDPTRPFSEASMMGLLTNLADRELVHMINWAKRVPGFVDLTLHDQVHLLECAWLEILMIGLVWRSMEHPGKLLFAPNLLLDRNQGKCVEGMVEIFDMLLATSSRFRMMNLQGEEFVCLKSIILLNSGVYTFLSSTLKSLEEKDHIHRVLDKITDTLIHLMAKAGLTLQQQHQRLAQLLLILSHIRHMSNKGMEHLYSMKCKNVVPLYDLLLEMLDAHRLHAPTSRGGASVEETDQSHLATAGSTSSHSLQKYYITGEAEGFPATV

[2] = biological target: T1, human estrogen receptor α (ERα); assay: ERα‐CALUX human cell-based reporter gene assay; settings: based on PC10 values, 3 replicates, considering molecular weights

| SMILES | 10× diluted PNEC (aquatic organisms) | REP (relative estrogenic potency in comparison to 17β‐estradiol) [1] | REP (relative estrogenic potency in comparison to 17β‐estradiol) [2] |
| --- | --- | --- | --- |
| C#C[C@]1(O)CC[C@H]2[C@@H]3CCc4cc(O)ccc4[C@H]3CC[C@@]21C [EE2, 17α‐ethinylestradiol] | 0.35 ng/L | – | – |
| CC(C)(c1ccc(O)cc1)c1ccc(O)cc1 [BPA, bisphenol A] | – | 4.5E−05 | 4.2E−05 |

Source: publication PMC9826432 (Environmental Toxicology and Chemistry, 2022)
